What was measured:
[1] = target: human factor Xa (FXa) (Homo sapiens (Human), UniProt P00742); experiment: Determination of the factor Xa inhibition (chromogenic substrate); format: biochemical
Experimental: Factor Xa cleaves p-nitroaniline from the chromogenic substrate. The determinations were carried out in microtitre plates as follows.
The test substances, in various concentrations, were dissolved in DMSO and incubated at 25° C. with human FXa (0.5 nmol/l dissolved in 50 mmol/l of tris buffer [C,C,C-tris(hydroxymethyl)-aminomethane], 150 mmol/l of NaCl, 0.1% BSA (bovine serum albumin), pH=8.3) for 10 minutes. Pure DMSO was used as control. The chromogenic substrate (150 μmol 11 of Pefachrome® FXa from Pentapharm) was then added.

[2] = system: thrombus formation in arteriovenous shunt; experiment: Arteriovenous shunt model (rat), antithrombotic activity; format: in vivo; settings: po, read-out: ED50 [mg/kg] p.o.
Experimental: b) Determination of the Antithrombotic Activity (In Vivo) b.1) Arteriovenous Shunt Model (Rat) Fasting male rats (strain: HSD CPB:WU) having a weight of 200-250 g were anaesthetized using a Rompun/Ketavet solution (12 mg/kg/50 mg/kg). Thrombus formation was initiated in an arteriovenous shunt in accordance with the method described by Christopher N. Berry et al., Br. J. Pharmacol. (1994), 113, 1209-1214. To this end, the left jugular vein and the right carotid artery were exposed. The two vessels were connected by an extracorporeal shunt using a polyethylene tube (PE 60) of a length of 10 cm. […] The extracorporeal circulation was maintained for 15 minutes. The shunt was then removed and the nylon thread with the thrombus was weighed immediately. The weight of the nylon thread on its own had been determined before the experiment was started. Before the extracorporeal circulation was set up, the test substances were administered to the animals while awake either intravenously via the tail vein or orally using a pharyngeal tube.

human factor Xa (FXa), sequence (P00742 235-488): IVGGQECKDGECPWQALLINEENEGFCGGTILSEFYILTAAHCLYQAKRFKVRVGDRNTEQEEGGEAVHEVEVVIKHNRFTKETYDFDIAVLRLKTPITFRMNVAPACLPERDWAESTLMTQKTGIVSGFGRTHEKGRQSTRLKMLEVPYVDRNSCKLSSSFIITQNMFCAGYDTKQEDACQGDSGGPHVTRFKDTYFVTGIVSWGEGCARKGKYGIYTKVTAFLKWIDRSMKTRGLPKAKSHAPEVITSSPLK
human factor Xa (FXa), sequence (P00742 41-179 partner): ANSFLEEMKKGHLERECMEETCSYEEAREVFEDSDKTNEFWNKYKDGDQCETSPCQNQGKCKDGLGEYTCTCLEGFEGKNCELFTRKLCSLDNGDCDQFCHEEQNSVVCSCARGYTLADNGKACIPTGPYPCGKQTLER

SMILES: O=C(NC[C@H]1CN(c2ccc(S(=O)(=O)N3CCC3)cc2)C(=O)O1)c1ccc(Cl)s1 [Example 39, 5-Chloro-N-({(5S)-3-[4-(1-azetidinylsulphonyl)phenyl]-2-oxo-1,3-oxazolidin-5-yl}methyl)-2-thiophenecarboxannide]
- IC50 ([1]; human FXa 0.5 nmol/l, Pefachrome FXa substrate, 25° C., value printed in example text): 840 nM

SMILES: O=C(NC[C@H]1CN(c2ccc(N3CCOCC3=O)cc2)C(=O)O1)c1ccc(Cl)s1 [Example 44, 5-Chloro-N-({(5S)-2-oxo-3-[4-(3-oxo-4-morpholinyl)phenyl]-1,3-oxazolidin-5-yl}methyl)-2-thiophenecarboxamide]
- ED50 [2]: 3 mg/kg

SMILES: O=C(NC[C@H]1CN(c2ccc(N3CCN(C(=O)CO)CC3)c(F)c2)C(=O)O1)c1ccc(Cl)s1 [Example 48]
- IC50 ([1]; human FXa, table of Examples 48-57): 120 nM
